Experimental data from ChEMBL document CHEMBL5214913, “Cysteine proteases as potential targets for anti-trypanosomatid drug discovery” (Bioorg Med Chem, 2021).
pIC50: −log10 of the molar value. Where a SMILES comes first, the peptide text is derived from it. The star is where a group is joined. Cbz = O=C(OCc1ccccc1)*

Legend:
Trypanosoma cruzi [1] = experiment: Antitrypanosomal activity against bloodstream Trypanosoma cruzi Y strain trypomastigote assessed as reduction in parasite viability incubated for 24 hrs by Neubauer chamber based analysis; format: functional, organism-based
Leishmania amazonensis = experiment: Antileishmanial activity against Leishmania amazonensis promastigotes assessed as reduction in parasite survival measured after 48 hrs by Neubauer counting chamber based analysis; format: functional; conditions: read-out: LD50 (the source's name)
Trypanosoma cruzi [2] = experiment: Antitrypanosomal activity against Trypanosoma cruzi Dm28c epimastigotes assessed as reduction in parasite viability incubated for 48 hrs by trypan blue staining based Neubauer counting chamber analysis; format: functional, organism-based
Trypanosoma cruzi [3] = experiment: Antiparasitic activity against Trypanosoma cruzi DM28c epimastigotes harboring TcMCA3 assessed reduction in parasite viability incubated for 72 hrs by MTT assay; format: functional, organism-based

Compound	pIC50 (Trypanosoma cruzi [1])	LC50 (Leishmania amazonensis) [µM]	pIC50 (Trypanosoma cruzi [2])	pIC50 (Trypanosoma cruzi [3])
CC(C)[C@H](NC(=O)OCc1ccccc1)C(=O)N[C@H](C=O)Cc1ccccc1 (Cbz-Val-Phe-aldehyde)	4.69	23.3	4.50	–
C=CCc1cccc(/C=N/NC(=O)CN2CCN(Cc3ccccc3)CC2)c1O [PAC-1]	–	–	–	4.85
